The record followed here is patent publication US20200247812A1 (Integral Biosciences Private Limited, priority 2018, published 2020).

For orientation: IC50 means the midpoint of a concentration-inhibition curve.

The structures appear in SMILES notation.

This test deals with T1, ALK 5 (Homo sapiens, UniProt P36897).
T1 sequence (P36897 34-503): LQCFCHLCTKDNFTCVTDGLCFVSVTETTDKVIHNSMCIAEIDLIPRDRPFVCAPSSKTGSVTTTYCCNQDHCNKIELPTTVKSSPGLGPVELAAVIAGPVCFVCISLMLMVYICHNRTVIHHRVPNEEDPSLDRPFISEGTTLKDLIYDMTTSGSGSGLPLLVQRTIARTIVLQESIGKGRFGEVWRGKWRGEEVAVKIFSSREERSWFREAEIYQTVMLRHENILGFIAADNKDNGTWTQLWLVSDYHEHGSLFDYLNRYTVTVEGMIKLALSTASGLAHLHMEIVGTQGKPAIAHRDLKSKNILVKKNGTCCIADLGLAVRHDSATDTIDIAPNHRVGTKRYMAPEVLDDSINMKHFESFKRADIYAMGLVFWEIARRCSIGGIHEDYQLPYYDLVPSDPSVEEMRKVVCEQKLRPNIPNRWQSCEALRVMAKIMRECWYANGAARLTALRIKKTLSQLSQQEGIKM
The test can be described thus: In vitro kinase assay (ALK5 IC50, LanthaScreen Terbium labeled TR-FRET). Type of test: biochemical. Particulars: TGF-β kinase 6 nM, ATP 10 μM, read-out: Enzyme Activity ALK 5 IC50. Here is the method: Compounds of the invention were screened in an in vitro kinase assay against ALK 5, a members of the TGF-β family of Ser/Thr kinases. Standard kinase testing conditions and techniques were employed. IC50 values of compounds against TGF-ß kinase was determined by LanthaScreen™ Terbium Labeled TR-FRET assay. Kinase assays were performed in 1X kinase buffer (# PV6135, Invitrogen, Life Technologies Grand Island, N.Y.) where total reaction volume was 10 μL in low-volume 384-well plates (#4511, Corning). Serially diluted compounds (3-fold) were incubated with TGF-β kinase (6 nM) for 10 min, following which a mixture of ATP (10 μM) (# A1852, Sigma, St-Louis, Mo.) and fluorescent-PolyGT substrate (200 nM); Cat # PV3610, Invitrogen, Life Technologies Grand Island, N.Y.) was added and incubated in dark at room temperature for 1 h. After 1 h, 10 μL stop solution containing Terbium labeled antibody (4 nM; Cat # PV3529, Invitrogen, Life Technologies Grand Island, N.Y.) and EDTA (# E5134, Sigma, St-Louis, Mo.; 20 mM) in TR-FRET dilution buffer (Cat # PV3574, Invitrogen, Life Technologies Grand Island, N.Y.) was added. Readings were taken in a Synergy Neo Plate reader (BioTek, Winooski) at single excitation of 340 nm and Dual emission at 495 nm and 520 nm respectively.
The % activity of test samples was calculated as (Sample-Min)×100/(Max −Min). [Max: DMSO control, complete reaction with enzyme with DMSO and Min: No enzyme with DMSO]. Percent inhibition (100-% activity) was fitted to the “four-parameter logistic model” in XLfit for determination of IC50 values.
For orientation: TR-FRET usually uses a lanthanide donor and a delayed reading to cut background.
With `CC(C)c1[nH]c(=O)c(-c2cc(Cl)ccc2F)cc1Nc1ccnc2c1CCC(=O)N2` [Compound 1.62, 5-((5-(5-chloro-2-fluorophenyl)-2-isopropyl-6-oxo-1,6-dihydropyridin-3-yl)amino)-3,4-dihydro-1,8-naphthyridin-2(1H)-one], the IC50 is more than 5 µM.

In the case of `CC(C)c1[nH]c(=O)c(-c2cc(Cl)ccc2F)cc1Nc1ccnc(NS(C)(=O)=O)c1` [Compound 1.63, N-(4-((5-(5-chloro-2-fluorophenyl)-2-isopropyl-6-oxo-1,6-dihydropyridin-3-yl)amino)pyridin-2-yl)methanesulfonamide], the IC50 was more than 5 µM. In the case of `CC(=O)Nc1cc(Nc2cc(-c3cc(Cl)c(C)cc3F)c(=O)[nH]c2C(C)C)ccn1` [Compound 1.64, N-(4-((5-(5-chloro-2-fluoro-4-methylphenyl)-2-isopropyl-6-oxo-1,6-dihydropyridin-3-yl)amino)pyridin-2-yl)acetamide] it was more than 5 µM. Take `CC(C)c1[nH]c(=O)c(-c2cc(Cl)ccc2F)cc1Nc1ccnc(NC(=O)CN2CCOCC2)c1` [Compound 1.65, N-(4-((5-(5-chloro-2-fluorophenyl)-2-isopropyl-6-oxo-1,6-dihydropyridin-3-yl)amino)pyridin-2-yl)-2-morpholinoacetamide]: the IC50 was more than 5 µM. `CC(=O)Nc1cc(N(C)c2cc(-c3cc(Cl)ccc3F)c(=O)[nH]c2C(C)C)ccn1` [Compound 1.66, N-(4-((5-(5-chloro-2-fluorophenyl)-2-isopropyl-6-oxo-1,6-dihydropyridin-3-yl)(methyl)amino)pyridin-2-yl)acetamide]: the IC50 was 0.5 to 2 µM. As to `O=c1[nH]c(C2CC2)c(Nc2ccnc3ccncc23)cc1-c1cc(Cl)ccc1F` [Compound 1.67, 5-((1,6-naphthyridin-4-yl)amino)-3-(5-chloro-2-fluorophenyl)-6-cyclopropylpyridin-2(1H)-one], the IC50 was not above 0.5 µM. For the molecule `CNC(=O)c1cnccc1Nc1cc(-c2cc(Cl)ccc2F)c(=O)[nH]c1C1CC1` [Compound 1.68, 4-((5-(5-chloro-2-fluorophenyl)-2-cyclopropyl-6-oxo-1,6-dihydropyridin-3-yl)amino)-N-methylnicotinamide], the IC50 was not above 0.5 µM.

With `CCc1[nH]c(=O)c(-c2cc(Cl)ccc2F)cc1Nc1ccnc2ccncc12` [Compound 1.71, 5-((1,6-naphthyridin-4-yl)amino)-3-(5-chloro-2-fluorophenyl)-6-ethylpyridin-2(1H)-one], the IC50 is not above 0.5 µM. On to `CCc1[nH]c(=O)c(-c2cc(Cl)ccc2F)cc1Nc1ccncc1C(=O)NC` [Compound 1.72, 4-((5-(5-chloro-2-fluorophenyl)-2-ethyl-6-oxo-1,6-dihydropyridin-3-yl)amino)-N-methylnicotinamide], for which the half-inhibitory concentration (IC50) was not above 0.5 µM. Next, `COc1[nH]c(=O)c(-c2cc(Cl)ccc2F)cc1Nc1ccnc2ccncc12` [Compound 1.73, 5-((1,6-naphthyridin-4-yl)amino)-3-(5-chloro-2-fluorophenyl)-6-methoxypyridin-2(1H)-one]: 0.5 to 2 µM. `NC(=O)c1cnccc1Nc1cc(-c2cc(Cl)ccc2F)c(=O)[nH]c1C1CC1` [Compound 1.74, 4-((5-(5-chloro-2-fluorophenyl)-2-cyclopropyl-6-oxo-1,6-dihydropyridin-3-yl)amino)nicotinamide]: the IC50 is not above 0.5 µM. Next, `COc1[nH]c(=O)c(-c2cc(Cl)ccc2F)cc1Nc1ccnc(NC(C)=O)c1` [Compound 1.75, N-(4-((5-(5-chloro-2-fluorophenyl)-2-methoxy-6-oxo-1,6-dihydropyridin-3-yl)amino)pyridin-2-yl)acetamide]: not above 0.5 µM; `COc1[nH]c(=O)c(-c2cc(Cl)ccc2F)cc1Nc1ccnc2[nH]ccc12` [Compound 1.76, 5-((1H-pyrrolo[2,3-b]pyridin-4-yl)amino)-3-(5-chloro-2-fluorophenyl)-6-methoxypyridin-2(1H)-one]: not above 0.5 µM; `Cc1cnc(Nc2cc(Nc3cc(-c4cc(Cl)ccc4F)c(=O)[nH]c3C3CC3)ccn2)s1` [Compound 1.77, 3-(5-chloro-2-fluorophenyl)-6-cyclopropyl-5-((2-((5-methylthiazol-2-yl)amino)pyridin-4-yl)amino)pyridin-2(1H)-one]: 2 to 5 µM.

For the molecule `CC(C)c1[nH]c(=O)c(-c2cc(Cl)ccc2F)cc1Nc1ncnc2c1CC(=O)N2` [Compound 1.78, 4-((5-(5-chloro-2-fluorophenyl)-2-isopropyl-6-oxo-1,6-dihydropyridin-3-yl)amino)-5,7-dihydro-6H-pyrrolo[2,3-d]pyrimidin-6-one], the IC50 is not above 0.5 µM. As for `CC(=O)Nc1cc(Nc2cc(-c3ccsc3)c(=O)[nH]c2C(C)C)ccn1` [Compound 1.79, N-(4-((2-isopropyl-6-oxo-5-(thiophen-3-yl)-1,6-dihydropyridin-3-yl)amino)pyridin-2-yl)acetamide], the IC50 is not above 0.5 µM. As to `CC(C)c1[nH]c(=O)c(-c2ccsc2)cc1Nc1ccnc2ccncc12` [Compound 1.80, 5-((1,6-naphthyridin-4-yl)amino)-6-isopropyl-3-(thiophen-3-yl)pyridin-2(1H)-one], the IC50 was in the range of 0.5 to 2 µM.

`CC(=O)Nc1cc(Nc2cc(-c3cccc(Cl)c3)c(=O)[nH]c2C(C)C)ccn1` [Compound 1.81, N-(4-((5-(3-chlorophenyl)-2-isopropyl-6-oxo-1,6-dihydropyridin-3-yl)amino)pyridin-2-yl)acetamide]: the IC50 was not above 0.5 µM. On to `Cc1cc(-c2cc(Nc3ncnc4c3CC(=O)N4)c(C(C)C)[nH]c2=O)ccc1F` [Compound 1.82, 4-((5-(4-fluoro-3-methylphenyl)-2-isopropyl-6-oxo-1,6-dihydropyridin-3-yl)amino)-5,7-dihydro-6H-pyrrolo[2,3-d]pyrimidin-6-one], for which the IC50 lay within 2 to 5 µM. Next, `CC(=O)Nc1cc(Nc2cc(-c3ccc(F)c(C)c3)c(=O)[nH]c2C(C)C)ccn1` [Compound 1.83, N-(4-((5-(4-fluoro-3-methylphenyl)-2-isopropyl-6-oxo-1,6-dihydropyridin-3-yl)amino)pyridin-2-yl)acetamide]: not above 0.5 µM. Turning to `CC(C)c1[nH]c(=O)c(-c2ccc(F)c(Cl)c2)cc1Nc1ccnc2[nH]ncc12` [Compound 1.84, 5-((1H-pyrazolo[3,4-b]pyridin-4-yl)amino)-3-(3-chloro-4-fluorophenyl)-6-isopropylpyridin-2(1H)-one], the IC50 is not above 0.5 µM.

As for `CC(C)c1[nH]c(=O)c(-c2ccc(F)c(Cl)c2)cc1Nc1ncnc2c1CC(=O)N2` [Compound 1.85, 4-((5-(3-chloro-4-fluorophenyl)-2-isopropyl-6-oxo-1,6-dihydropyridin-3-yl)amino)-5,7-dihydro-6H-pyrrolo[2,3-d]pyrimidin-6-one], the IC50 lay within 0.5 to 2 µM. As for `CCc1[nH]c(=O)c(-c2ccc(F)c(Cl)c2)cc1Nc1ccnc2ccncc12` [Compound 1.87, 5-((1,6-naphthyridin-4-yl)amino)-3-(3-chloro-4-fluorophenyl)-6-ethylpyridin-2(1H)-one], the half-inhibitory concentration (IC50) was not above 0.5 µM. Next, `CCc1[nH]c(=O)c(-c2ccc(F)c(Cl)c2)cc1Nc1ccnc(NC(C)=O)c1` [Compound 1.88, N-(4-((5-(3-chloro-4-fluorophenyl)-2-ethyl-6-oxo-1,6-dihydropyridin-3-yl)amino)pyridin-2-yl)acetamide]: not above 0.5 µM. Turning to `Cc1cc(-c2cc(Nc3ccnc4ccncc34)c(C(C)C)[nH]c2=O)ccc1F` [Compound 1.89, 5-((1,6-naphthyridin-4-yl)amino)-3-(4-fluoro-3-methylphenyl)-6-isopropylpyridin-2(1H)-one], the IC50 was in the range of 2 to 5 µM. Turning to `CCc1[nH]c(=O)c(-c2ccc(F)c(Cl)c2)cc1Nc1ccnc2[nH]ccc12` [Compound 1.90, 5-((1H-pyrrolo[2,3-b]pyridin-4-yl)amino)-3-(3-chloro-4-fluorophenyl)-6-ethylpyridin-2(1H)-one], the IC50 was not above 0.5 µM.
